Data reported in the supplement of paper PMC10331698.
± gives the standard deviation of the averaged measurements.

Columns and labels:
Assay in all cases: level (log10 ratio to DMSO vehicle control); higher = higher biomarker level / cell amount than vehicle control
Details in all cases: in DMSO
[1] = compound: NC(=O)C(F)(F)C(F)(F)C(F)(F)C(F)F
Protocol: (§1)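 BioMAP Diversity Plus panel of 12 human primary cell co-culture systems (3C, 4H, LPS, SAg, BT, BF4T, BE3C, CASM3C, HDF3CGF, KF3CT, MyoF, Mphg). Compounds were added 1 h before stimulation and left for 24 h (MyoF 48 h; BT 72 h for soluble read-outs or 6 d for IgG). Biomarkers were read by ELISA, cytotoxicity by SRB, PBMC viability and proliferation by Alamar Blue. Each well value was divided by the mean of 8 DMSO control wells on the same plate and log10 transformed; duplicate blinded samples were tested at 4 concentrations.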

[2] = compound: FC(F)(F)C(F)(F)CNCC(F)(F)C(F)(F)F [Bis(1H,1H-perfluoropropyl)amine]
Protocol: as §1

[3] = compound: FC(F)(F)C(F)(F)C(F)(F)C(F)(F)C(F)(F)C(F)(F)CC1CO1 [3-(Perfluorohexyl)-1,2-epoxypropane]
Protocol: as §1

Octafluoroadipamide = compound: NC(=O)C(F)(F)C(F)(F)C(F)(F)C(F)(F)C(N)=O [Octafluoroadipamide]
Protocol: as §1

[4] = compound: O=S(=O)(Cl)C(F)(F)C(F)(F)C(F)(F)C(F)(F)C(F)(F)C(F)(F)C(F)(F)C(F)(F)F [Perfluoro-1-octanesulfonyl chloride]
Protocol: as §1

[5] = compound: O=C(O)C(F)(F)C(F)(F)C(F)(F)C(F)(F)C(F)(F)C(F)(F)C(F)(F)C(F)(F)C(F)(F)C(F)F [11-H-Perfluoroundecanoic acid]
Protocol: as §1

Heptafluorobutyl iodide = compound: FC(F)(F)C(F)(F)C(F)(F)CI [Heptafluorobutyl iodide]
Protocol: as §1

Test System | level (log10) ([1]; 6700 nM) | level (log10) ([1]; 20000 nM) | level (log10) ([1]; 60000 nM) | level (log10) ([2]; 6700 nM) | level (log10) ([2]; 20000 nM) | level (log10) ([2]; 60000 nM) | level (log10) ([3]; 6700 nM) | level (log10) ([3]; 20000 nM) | level (log10) ([3]; 60000 nM) | level (log10) (Octafluoroadipamide; 6700 nM) | level (log10) (Octafluoroadipamide; 20000 nM) | level (log10) (Octafluoroadipamide; 60000 nM) | level (log10) ([4]; 6700 nM) | level (log10) ([4]; 20000 nM) | level (log10) ([4]; 60000 nM) | level (log10) ([5]; 6700 nM) | level (log10) ([5]; 20000 nM) | level (log10) (Heptafluorobutyl iodide; 6700 nM) | level (log10) (Heptafluorobutyl iodide; 20000 nM) | level (log10) (Heptafluorobutyl iodide; 60000 nM)
lMphg:CD69 | 0.0265 ± 0.018 | -0.015 ± 0.0071 | -0.0115 ± 0.0078 | -0.017 ± 0.028 | -0.012 ± 0.03 | 0.0045 ± 0.14 | 0.004 ± 0.025 | -0.007 ± 0.021 | 0.0235 ± 0.049 | -0.0425 ± 0.052 | -0.027 ± 0.042 | 0.0275 ± 0.063 | -0.054 ± 0.0099 | -0.0855 ± 0.033 | -0.111 ± 0.09 | -0.054 ± 0.0085 | -0.039 ± 0.013 | -0.048 ± 0.03 | -0.033 | -0.026 ± 0.025
lMphg:CXCL8/IL-8 | -0.0235 ± 0.0078 | -0.0225 ± 0.028 | 0.0185 ± 0.047 | 0 ± 0.011 | 0.0075 ± 0.069 | -0.0035 ± 0.053 | -0.0215 ± 0.0035 | -0.0125 ± 0.019 | 0.04 ± 0.05 | 0.003 ± 0.054 | -0.0095 ± 0.069 | 0.0455 ± 0.026 | -0.002 ± 0.017 | 0.0335 ± 0.00071 | 0.115 ± 0.061 | -0.0045 ± 0.0078 | -0.031 ± 0.0042 | -0.0335 ± 0.028 | -0.0275 ± 0.00071 | -0.0415 ± 0.0078
lMphg:IL-1alpha | -0.0425 ± 0.023 | -0.0465 ± 0.00071 | 0.0365 ± 0.047 | -0.025 ± 0.0071 | -0.031 ± 0.0057 | 0.0295 ± 0.059 | -0.0115 ± 0.046 | -0.013 ± 0.021 | -0.0015 ± 0.011 | -0.0135 ± 0.016 | -0.044 ± 0.016 | -0.014 ± 0.065 | -0.0225 ± 0.033 | -0.005 ± 0.042 | 0.021 ± 0.088 | -0.024 ± 0.024 | -0.008 ± 0.0014 | 0.029 ± 0.027 | 0.0335 ± 0.03 | 0.0305 ± 0.019
lMphg:M-CSF | -0.0135 ± 0.0092 | -0.018 ± 0.025 | -0.0175 ± 0.015 | -0.007 ± 0.011 | -0.0145 ± 0.022 | 0.0165 ± 0.021 | -0.01 ± 0.0071 | -0.0305 ± 0.0078 | -0.0145 ± 0.021 | -0.017 ± 0.0028 | -0.0065 ± 0.0035 | 0.0045 ± 0.00071 | -0.023 ± 0.042 | -0.012 ± 0.031 | 0.0215 ± 0.04 | -0.019 ± 0.0071 | -0.007 ± 0.018 | -0.026 ± 0.014 | -0.0165 ± 0.005 | -0.0245 ± 0.039
lMphg:SRB-Mphg | 0.0005 ± 0.013 | -0.0045 ± 0.015 | 0.013 ± 0.027 | -0.025 ± 0.03 | -0.058 ± 0.023 | -0.0025 ± 0.037 | 0.0095 ± 0.0092 | 0.0035 ± 0.012 | 0.013 ± 0.0014 | -0.02 ± 0.027 | -0.0265 ± 0.018 | 0.003 ± 0.018 | 0.0025 ± 0.013 | 0.004 ± 0.016 | -0.0185 ± 0.025 | 0.008 ± 0.011 | -0.0095 ± 0.03 | -0.0065 ± 0.005 | 0.0055 ± 0.0078 | 0.007 ± 0.031
lMphg:sIL-10 | -0.013 ± 0.023 | -0.0715 ± 0.005 | -0.021 ± 0.047 | -0.0755 ± 0.028 | 0.037 ± 0.024 | -0.059 ± 0.034 | -0.0195 ± 0.029 | -0.057 ± 0.0085 | -0.059 ± 0.051 | -0.0295 ± 0.021 | -0.012 ± 0.11 | -0.1 ± 0.017 | 0.0345 ± 0.054 | -0.071 ± 0.1 | -0.341 ± 0.033 | -0.0875 ± 0.026 | -0.0855 ± 0.0064 | -0.0135 ± 0.036 | 0.0085 ± 0.013 | -0.03 ± 0.078
